Assay results reported in ChEMBL document CHEMBL1201862, “PubChem BioAssay data set” (2004).
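96-well plates; 48 h exposure; 5 concentrations. Endpoints by linear interpolation between flanking doses. Not reached: highest tested concentration assigned. At the GI50, growth is halved.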 Activity calls are given as the source filed them. Rule as the data show it: active = GI50 up to about 1.1 µM and inactive = higher.

Columns and labels:
Experiment in all cases: inhibition of tumour cell growth, NCI panel, 48 h
[1] = test system: LOX IMVI
[2] = test system: HT-29
[3] = test system: 786-0
[4] = test system: OVCAR-4
[5] = test system: HOP-92
[6] = test system: HCC 2998
[7] = test system: OVCAR-8
[8] = test system: NCI-H23
[9] = test system: OVCAR-5
[10] = test system: IGROV-1
[11] = test system: RPMI-8226
[12] = test system: KM12
[13] = test system: MDA-MB-435
[14] = test system: DU-145
[15] = test system: MOLT-4
[16] = test system: SN12C
[17] = test system: MCF7
[18] = test system: T47D
[19] = test system: Hs-578T
[20] = test system: CCRF-CEM
[21] = test system: EKVX
[22] = test system: COLO 205
[23] = test system: SK-MEL-28
[24] = test system: M14
[25] = test system: U-251
[26] = test system: HOP-62
[27] = test system: Malme-3M
[28] = test system: SK-MEL-5
[29] = test system: SW-620
[30] = test system: OVCAR-3
[31] = test system: NCI-H460
[32] = test system: SK-OV-3
[33] = test system: NCI-H522
[34] = test system: NCI/ADR-RES
[35] = test system: BT-549
[36] = test system: UACC-257
[37] = test system: NCI-H226
[38] = test system: SF-295
[39] = test system: A498
[40] = test system: MDA-MB-231
[41] = test system: RXF 393
[42] = test system: HCT-116
[43] = test system: HCT-15
[44] = test system: UO-31
[45] = test system: SF-268
[46] = test system: A549
[47] = test system: K562
[48] = test system: UACC-62
[49] = test system: ACHN
[50] = test system: HL-60
[51] = test system: TK-10
[52] = test system: SF-539
[53] = test system: SNB-19
[54] = test system: PC-3
[55] = test system: SR
[56] = test system: SK-MEL-2
[57] = test system: CAKI-1
[58] = test system: SNB-75

Measured: GI50

NCCCNc1ccc2c(c1)[n+]([O-])c1ccccc1[n+]2[O-]
inactive: [1] 7.14 µM | [2] 28.6 µM | [3] 29.2 µM | [4] 25 µM | [5] 12.7 µM | [6] 23.2 µM | [7] 31.5 µM | [8] 35.5 µM | [9] 28.4 µM | [10] 12.7 µM | [11] 17.6 µM | [12] 25.4 µM | [13] 31.8 µM | [14] 27 µM | [15] 15.7 µM | [16] 26 µM | [17] 13.9 µM | [18] 22.7 µM | [19] 18.5 µM | [20] 22.4 µM | [21] 37.2 µM | [22] 18.3 µM | [23] 59.7 µM | [24] 13.8 µM | [25] 19.5 µM | [26] 22.7 µM | [27] 17.4 µM | [28] 15.2 µM | [29] 33 µM | [30] 19.8 µM | [31] 15.7 µM | [32] 14.2 µM | [33] 13.6 µM | [34] > 100 µM | [35] 13.6 µM | [36] 27.2 µM | [37] 12.3 µM | [38] 28.8 µM | [39] 17.2 µM | [40] 19.9 µM | [41] 20.1 µM | [42] 17.3 µM | [44] 35.3 µM | [45] 27.1 µM | [46] 31.5 µM | [47] 26.4 µM | [48] 17.7 µM | [49] 21 µM | [50] 19.7 µM | [51] 28.4 µM | [52] 20.6 µM | [53] 28.3 µM | [54] 27.4 µM | [55] 19.1 µM
22.9 µM: [43]

CC(C)(C)OC(=O)N(CCCN)CCCCN
> 100 µM: [43]
inactive: [56] > 100 µM | [2] > 100 µM | [3] > 100 µM | [57] > 100 µM | [4] > 100 µM | [5] > 100 µM | [6] > 100 µM | [7] > 100 µM | [8] > 100 µM | [9] > 100 µM | [10] > 100 µM | [11] > 100 µM | [12] > 100 µM | [13] > 100 µM | [14] > 100 µM | [15] > 100 µM | [16] > 100 µM | [17] > 100 µM | [18] > 100 µM | [19] > 100 µM | [20] > 100 µM | [21] > 100 µM | [22] > 100 µM | [23] > 100 µM | [24] > 100 µM | [25] > 100 µM | [26] > 100 µM | [28] > 100 µM | [29] > 100 µM | [30] > 100 µM | [31] > 100 µM | [32] > 100 µM | [33] > 100 µM | [34] > 100 µM | [35] > 100 µM | [36] > 100 µM | [37] > 100 µM | [38] > 100 µM | [39] > 100 µM | [41] > 100 µM | [42] > 100 µM | [44] > 100 µM | [45] > 100 µM | [46] > 100 µM | [47] > 100 µM | [48] > 100 µM | [49] > 100 µM | [50] > 100 µM | [51] > 100 µM | [52] > 100 µM | [53] > 100 µM | [54] > 100 µM | [55] > 100 µM
active: [40] 0.0673 µM

CC1=CC[C@](C)(O)[C@@]2(C)CC[C@H]3C(=C(C)C)C(=O)C[C@]3(C)C[C@H]12
12.3 µM: [43]
inactive: [1] 7.93 µM | [56] > 50 µM | [2] 24.8 µM | [3] 15.7 µM | [57] 16 µM | [4] > 50 µM | [5] > 50 µM | [6] > 50 µM | [7] 29.2 µM | [8] 34.1 µM | [9] > 50 µM | [10] 19.3 µM | [11] 11.2 µM | [12] 12.9 µM | [13] 18.7 µM | [14] > 50 µM | [15] 8.07 µM | [16] 34.8 µM | [17] 31.3 µM | [18] 28.9 µM | [19] 38.2 µM | [20] 10.8 µM | [21] > 50 µM | [22] 45.5 µM | [23] > 50 µM | [24] 24.8 µM | [25] > 50 µM | [26] 42.2 µM | [28] 27.8 µM | [29] 27 µM | [30] 36.3 µM | [32] > 50 µM | [33] 10.4 µM | [34] 16.5 µM | [35] 13.8 µM | [36] > 50 µM | [58] 26.5 µM | [37] > 50 µM | [38] > 50 µM | [39] > 50 µM | [40] > 50 µM | [41] 30 µM | [42] 14.1 µM | [44] 28.8 µM | [45] > 50 µM | [46] 46.8 µM | [47] 9.2 µM | [48] 11.9 µM | [49] 38.7 µM | [50] 6.55 µM | [51] > 50 µM | [52] > 50 µM | [53] > 50 µM | [54] 21.4 µM | [55] 12.5 µM
